PMC3541007 (ChemMedChem, 2009)
“And” between values parts separate entries of the source, which are not always exact repeats. Equal entries are not always repeated. Where two headings read alike, the source gives them in different places.

Legend:
[1] = test system: M. tuberculosis clinical isolate 5071; type: cell-based; conditions: multi-drug resistant isolate, four weeks
[2] = test system: M. tuberculosis H37Rv inhA (S94A); type: cell-based, Mycobacterium tuberculosis
[3] = test system: M. tuberculosis clinical isolate 12081; type: cell-based; conditions: for MIC clinical isolate 12081: multi-drug resistant isolate, four weeks
[4] = test system: M. tuberculosis H37Rv ΔkatG; type: cell-based, Mycobacterium tuberculosis

| Compound | MIC clinical isolate 5071 [1] [µg/mL] | MIC clinical isolate 5071 ([1]; value in parentheses) [µM] | MIC H37Rv inhA (S94A) [2] | MIC clinical isolate 12081 [3] [µg/mL] | MIC clinical isolate 12081 ([3]; value in parentheses) [µM] | times less active against the ΔkatG mutant [4] | fold loss in potency versus InhA(S94A) strain compared to wild-type [2] [fold] | fold resistance of strain 12081 ([3]; MIC ratio vs wild-type strain) [fold] |
| --- | --- | --- | --- | --- | --- | --- | --- | --- |
| 5-n-butyltriclosan [Compound 10] | 4.7 | 15 | 37 (120) µg/ml and 37 (120) µM | 37 | 120 | – | – | – |
| NNC(=O)c1ccncc1 [INH, isoniazid] | – | – | 0.50 (3.6) µg/ml and 0.50 (3.6) µM | – | – | more than 3000 times | 8 | 17 |
